Data set [1] has as its target acetylcholinesterase (AChE) (Homo sapiens, UniProt P22303). The conditions noted are these: colorimetric method; cited from earlier work.
The conditions of data set [2]: cited from earlier work.
For data set [3] the following is noted: oral intakes up to 4.6 grams per day; cited from earlier work.
Data set [4] deals with Rat. The conditions noted are these: in vivo; cited from earlier work.
Data set [5] is described as follows: Human equivalent dose estimate of the forskolin LD50 (Reagan-Shaw).
The subject of data set [6] is Rat. The conditions noted are these: cited from earlier work.
For the next data set, the system named is mouse. The conditions noted are these: cited from earlier work.
A further data set has as its system isolated rat lungs. The conditions noted are these: dose-dependent; cited from earlier work.
The conditions of data set [7]: cited from earlier work; for half-life: oral.
The test system of data set [8] is diabetic and at-risk-of-diabetes patients. The conditions noted are these: 1.5 to 3 g daily for several years; cited from earlier work.
The next data set relates to mouse endothelial cells. The conditions noted are these: cited from earlier work.
The next data set concerns Kuming mice. The conditions noted are these: acute toxicity study; cited from earlier work.
The test system of data set [9] is mouse microglial cell line MG6. The conditions noted are these: cited from earlier work.
The next data set relates to mice ear edema. The conditions noted are these: cited from earlier work.
In the next data set the test system is NO production. The conditions noted are these: cited from earlier work.
The subject of the next data set is NF-κB pathway. The conditions noted are these: cited from earlier work.
Data set [10] has as its system Dopamine beta-hydroxylase (DBH) mRNA in PC12 cells. The conditions noted are these: cited from earlier work.
The subject of data set [11] is tyrosine hydroxylase (TH) mRNA in PC12 cells. The conditions noted are these: cited from earlier work.

Like-named read-outs stand apart in the source and are kept apart here.

Chain of acetylcholinesterase (AChE) (P22303 32-614, species assumed): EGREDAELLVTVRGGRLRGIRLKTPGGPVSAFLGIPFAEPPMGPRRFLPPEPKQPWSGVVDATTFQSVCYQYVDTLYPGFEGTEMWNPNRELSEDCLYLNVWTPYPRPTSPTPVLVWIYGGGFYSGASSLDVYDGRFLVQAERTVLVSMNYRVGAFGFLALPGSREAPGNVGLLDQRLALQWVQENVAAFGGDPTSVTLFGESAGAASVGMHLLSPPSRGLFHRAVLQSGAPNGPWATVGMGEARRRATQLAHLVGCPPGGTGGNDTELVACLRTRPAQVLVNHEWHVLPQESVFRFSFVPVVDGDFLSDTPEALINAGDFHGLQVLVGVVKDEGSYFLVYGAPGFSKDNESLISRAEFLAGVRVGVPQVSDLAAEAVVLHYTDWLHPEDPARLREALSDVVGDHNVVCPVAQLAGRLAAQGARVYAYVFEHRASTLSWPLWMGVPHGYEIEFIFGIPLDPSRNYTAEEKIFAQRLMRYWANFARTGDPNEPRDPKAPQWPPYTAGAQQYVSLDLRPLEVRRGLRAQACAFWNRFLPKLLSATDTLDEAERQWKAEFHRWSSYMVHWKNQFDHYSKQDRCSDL

As to `CC1=CCC2C(C1)C2(C)C` (single isomer, unassigned; (+)) [(+)-3-carene], in data set [1], the “Inhibition of AChE” value is on record as “potent inhibitors”.
On to `CNCC(=O)O` [sarcosine, N-methylglycine], for which, in data set [2] (2 and 4 gm/d for one week), the safety entry is reported as “appears to be safe”. Further, in data set [2] (human, 2 and 4 gm/d), the “time to peak concentration in serum” value is given as “two”.
phosphatidylcholine [PC]: the tolerability result in [3] is given as “very well tolerated”.
Turning to `C=C[C@@]1(C)CC(=O)[C@]2(O)[C@@]3(C)[C@@H](O)CCC(C)(C)[C@@H]3[C@H](O)[C@H](OC(C)=O)[C@@]2(C)O1` [forskolin], the “oral LD50 (rat)” value in the data set on Rat [4] is 2,550 mg/kg. Further, the “estimated LD50 in a person” value in data set [5] (100 pound (45.4 Kg) person) was 18,773.51 mg. In addition, the LD50 in data set [5] (rat, oral, 2550×(6/37), Reagan-Shaw, read-out: HED of the rat LD50) is 413 mg/kg.
Consider `CC1=CC[C@H]2C[C@@H]1C2(C)C` [(−)-alpha-pinene], for which the “Inhibition of AChE” value in data set [1] is recorded as “potent inhibitors”.
As to `NC(=O)c1cccnc1` [niacinamide, nicotinamide], the median lethal dose (LD50) in the data set with Rat [6] was 3500 mg/kg; with mouse it was 2500 mg/kg. The “PMA-induced pathophysiological and biochemical changes (acute lung injury)” value in the data set on isolated rat lungs is “diminished”. Besides, in data set [7] (agreement of both studies), the “half-life cautiously assumed for humans” value was 4 h. Moreover, the “effect on blood pressure, pulse or body temperature” value in [7] (human, oral doses of 1-6 g) is listed as “no detectable effect”. For the same molecule, the half-life is ~1.5 h in data set [7] (human, 1-g dose); ~4 h in data set [7] (human, 2 g); 7 to 9 h in data set [7] (human, 4 and 6 g). For the same molecule, the “effect on biochemical parameters including liver and kidney function tests” value in data set [8] is “no effect”. In addition, the “SEB-induced endothelial NO production” value with mouse endothelial cells (IFN-primed endothelial cells) is on record as “significantly reduced”. Besides, the “IFN-gamma induction of endothelial class II MHC surface antigen” value in the data set with mouse endothelial cells is “markedly reduced”. Further, the “iNOS mRNA levels” value in the data set on mouse endothelial cells is “reduced”.
For the molecule `CC1=CC[C@@H]2C[C@H]1C2(C)C` [(+)-alpha-pinene], in [1], the “Inhibition of AChE” value is on record as “potent inhibitors”.
Take `CC(C)c1cc2c(c(O)c1O)[C@@]1(C(=O)O)CCCC(C)(C)[C@@H]1CC2` [carnosic acid]: the “oral lethal dose (LD50)” value in the data set with Kuming mice is listed as 7100 mg/kg of body weight. Besides, the NO production result in data set [9] (associated with decrease in inducible NO synthase) was “inhibited”. Further, the cell survival entry in [9] (at the concentrations used) is reported as “Neither CA nor LPS affected cell survival”. Moreover, the “LPS-induced activation of MG6 cells” value in data set [9] (in vitro) is “inhibited”.
Take `CC(C)=CCCC(C)=CC=O` [citral]: the “inflammation reduction, ear edema” value in the data set on mice ear edema (0.1 mg per ear) was 22%; in the data set with mice ear edema (0.3 mg per ear), 83%. Moreover, the “NO production inhibitory activity, IC50” value with NO production was 13.18 µg/mL. In addition, the “activity on COX-2” value with NF-κB pathway is listed as “could not efficiently suppress”. Also, the “expression of IKK, iNOS, and nuclear NF-κB” value with NF-κB pathway (dose-dependent) is listed as “decreased”.
Regarding `CN1CCCC1c1cccnc1` (centres unmarked) [Nicotine], the “increase of DBH mRNA levels” value in data set [10] was 3.1 fold. For the same molecule, the “increase of TH mRNA levels” value in [11] was 3.3 fold.

B1: interleukin-10: interleukin-10 (protein, UniProt P22301 19-178, looked up)
Interleukin-10: SPGQGTQSENSCTHFPGNLPNMLRDLRDAFSRVKTFFQMKDQLDNLLLKESLLEDFKGYLGCQALSEMIQFYLEEVMPQAENQDPDIKAHVNSLGENLKTLRLRLRRCHRFLPCENKSKAVEQVKNAFNKLQEKGIYKAMSEFDIFINYIEAYMTMKIRN
On to B1, for which, in the data set on mouse endothelial cells, the “IFN-gamma induction of endothelial class II MHC surface antigen” value is given as “no effect”, the “SEB-induced endothelial NO production” value is on record as “significantly reduced” and the “iNOS mRNA levels” value is listed as “did not consistently reduce”.

In general, LD50 refers to the dose expected to kill half of the subjects tested. In general, half-life refers to the time needed for the level to fall by half in the phase considered.
